Measured values reported in patent US11014924B2, “Hydantoin containing deoxyuridine triphosphatase inhibitors” (CV6 Therapeutics (NI) Limited, priority 2016, dated 2021).
Each block holds one compound with its values, some of them ahead of it.

Key:
SW620 cells = test: MTS growth inhibition assay; type: cell-based; conditions: colorectal SW620; 5-FU between 0 and 100 μmol/L; 72 hours
Method: (§1) The Cell Titer AQueous MTS assay (Promega) is carried out according to the manufacturers guidelines. […] The combination effect is determined by the combination index (CI) method utilizing Calcusyn software (Biosoft, Ferguson, Mo.). Fraction affected (FA) is calculated from the percent growth inhibition: FA=[…]. CI values <1, synergism; 1-1.2, additive and >1.2, antagonism.
(§2) Test compounds are evaluated for their antitumor activity in colorectal cancer cells using the MTS growth inhibition assay. HCT116 and SW620 cells are exposed to increasing concentrations of each agent for 72 hours and growth inhibition is directly compared to vehicle-treated controls. The NSCLC cell lines A549 and H1299 are exposed to increasing concentrations of each agent for 72 hours and growth inhibition is directly compared to vehicle-treated controls.
(§3) MTS growth inhibition assays are performed to evaluate the effectiveness of the test compounds alone and in combination with the fluoropyrimidine thymidylate synthase (TS) inhibitor 5-fluorouracil (5-FU) at inhibiting the growth of colorectal (HCT116 and SW620) cell line models. […] Simultaneous treatment with increasing concentrations of 5-FU and a test compound at fixed concentrations of 25 μmol/L is determined.

HCT116 cells [1] = test: MTS growth inhibition assay; type: cell-based; conditions: colorectal HCT116; 5-FU between 0 and 100 μmol/L; 72 hours
Method: as §1, §2, §3

[2] = biological target: T1, recombinant human deoxyuridine nucleotidohydrolase (dUTPase) (Homo sapiens, UniProt P33316); test: fluorescence-based dUTPase inhibition assay; type: biochemical; conditions: 5 ng recombinant dUTPase, 50 pmols dUTP, 37° C. for 8 mins
T1 construct: made in house
T1 sequence (P33316 1-164 isoform P33316-2): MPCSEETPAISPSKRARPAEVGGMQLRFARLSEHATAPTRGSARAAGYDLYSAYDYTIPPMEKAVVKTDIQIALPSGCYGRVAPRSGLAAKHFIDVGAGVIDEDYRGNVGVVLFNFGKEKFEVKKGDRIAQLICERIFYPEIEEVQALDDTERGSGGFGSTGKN
Text: Recombinant human deoxyuridine nucleotidohydrolase (dUTPase) is expressed and purified as described in Ladner R D, Carr S A, Huddleston M J, McNulty D E, Caradonna S J. J Biol Chem. 1996 Mar. 29; 271(13):7752-7. All drugs stocks are aliquoted and diluted as appropriate prior to use. The oligonucleotide primer, templates and fluorophore- and quencher-labeled detection probes are synthesized by Integrated DNA Technologies (Coralville, Iowa), subjected to polyacrylamide gel electrophoresis purification and reconstituted in Omnipur sterile nuclease-free water (EMD Chemicals USA, Gibbstown N.J.) at a stock concentration of 100 μmol/L. The two non-emissive (dark) quenching molecules incorporated into the detection probes include the Iowa black […] (IBFQ; absorption max 531 nm) and ZEN (non-abbreviation; absorption max 532 nm). The fluorescent label utilized is 6-FAM (5′-carboxyfluorescein; excitation max.=494 nm, emission max.=520 nm). Probes are further diluted to a working stock of 10 μmol/L and aliquoted to avoid repeated freeze/thaw cycles. […]
Reaction mixtures contained primer, probe and template at an equimolar final concentration of 0.4 μmol/L. Magnesium chloride (MgCl2) is included at a final concentration of 2 mmol/L. Non-limiting dNTPs are included in the reaction mix in excess at a final concentration of 100 μmol/L (dUTP/dTTP is excluded). […] Thermal profiling and fluorescence detection is performed using a customized thermal program on board a Roche Lightcycler LC480 Instrument II. […] Raw fluorescence spectra for 6-FAM is measured at specified time intervals to follow assay progression on board a Roche LightCycler 480 Software Version 1.5 and exported and analyzed in Microsoft Excel (Microsoft, Redmond Wash.) and Prism (GraphPad Software, La Jolla Calif.). Fluorescence values for blank reactions (limiting dNTP omitted) are subtracted to give normalized fluorescence units (NFU) to account for background fluorescence.
Test compounds are screened in a fluorescence-based assay. […]

MCF-7 cells = test: Colony forming assay; type: cell-based; conditions: breast MCF-7; FUdR between 0.5 and 2.5 μmol/L
Method: (§4) Colony forming assay showing the ability of colon (SW620, HCT116), non-small cell lung (A549, H460, H1299 and H358) and breast (MCF7) cancer cells to survive and proliferate following transient 24 hour exposure to test compounds, FUdR and combinations are determined. Specifically, cells are seeded at densities between 50 and 100 cells/well in 24-well plates. Twenty-four hours later, cells are treated with increasing concentrations of a rtest compound, a fixed dose of FUdR and combinations of these. After 24 hours, drug is removed, cells are rinsed and allowed to outgrow for 10-14 days. At the conclusion of the outgrowth, cells are fixed in 60% ice cold methanol and stained with 0.1% crystal violet, scanned and counted. Data is presented as percentage of untreated controls (mean±SD). Fraction affected and combination indexes are calculated according to the method of Chou and Talalay where <1 is indicative of a synergistic drug interaction.
(§5) Colony forming assays are performed to evaluate the effectiveness of test compounds alone and in combination with the fluoropyrimidine thymidylate synthase (TS) inhibitor fluorodeoxyuridine (FUdR) at reducing cancer cell viability in colorectal (HCT116), breast (MCF-7) and non-small cell lung (H1299, A549, H358 and H460) cell line models. […] In colorectal cancer cells, concentrations of test compounds ranging e.g., from 3.1 μmol/L to 50 μmol/L are combined with 0.5 μmol/L FUdR in HCT116 cells and 1 μmol/L FUdR in SW620 cells.

H460 cells = test: Colony forming assay; type: cell-based; conditions: non-small cell lung H460; FUdR between 0.5 and 2.5 μmol/L
Method: as §4, §5

A549 cells = test: Colony forming assay; type: cell-based; conditions: non-small cell lung A549; FUdR between 0.5 and 2.5 μmol/L
Method: as §4, §5

HCT116 cells [3] = test: Colony forming assay; type: cell-based; conditions: colorectal HCT116; FUdR between 0.5 and 2.5 μmol/L
Method: as §4, §5

H358 cells = test: Colony forming assay; type: cell-based; conditions: non-small cell lung H358; FUdR between 0.5 and 2.5 μmol/L
Method: as §4, §5

H1299 cells = test: Colony forming assay; type: cell-based; conditions: non-small cell lung H1299; FUdR between 0.5 and 2.5 μmol/L
Method: as §4, §5

SMILES: O=c1[nH]cc(F)c(=O)[nH]1 [Example 5-FU, 5-fluorouracil]
growth inhibition (SW620 cells): dose-dependent increases in growth inhibition
growth inhibition (HCT116 cells [1]): dose-dependent increases in growth inhibition

IC50 [2]: ~100 µM
SMILES: C[C@@H](NS(=O)(=O)CCc1cccc(N2CC(=O)NC2=O)c1)c1ccc(F)c(OCC2CC2)c1 [Example 79, (R)—N-(1-(3-(cyclopropylmethoxy)-4-fluorophenyl)ethyl)-2-(3-(2,4-dioxoimidazolidin-1-yl)phenyl)ethane-1-sulfonamide]

IC50 [2]: 80 µM
SMILES: C[C@@H](NS(=O)(=O)Cc1cccc(CN2CC(=O)NC2=O)c1)c1ccc(F)c(OCC2CC2)c1 [Example 81, (R)—N-(1-(3-(cyclopropylmethoxy)-4-fluorophenyl)ethyl)-1-(3-((2,4-dioxoimidazolidin-1-yl)methyl)phenyl)methanesulfonamide]

IC50 [2]: 2.2 µM
SMILES: C[C@@H](NS(=O)(=O)Cc1ccc(CN2CC(=O)NC2=O)cc1)c1ccc(F)c(OCC2CC2)c1 [Example 82, (R)—N-(1-(3-(cyclopropylmethoxy)-4-fluorophenyl)ethyl)-1-(4-((2,4-dioxoimidazolidin-1-yl)methyl)phenyl)methanesulfonamide]

SMILES: O=c1[nH]c(=O)n([C@H]2C[C@H](O)[C@@H](CO)O2)cc1F [FUdR, fluorodeoxyuridine]
colonies formed (MCF-7 cells): dose-dependent decreases in colonies formed
colonies formed (H460 cells): dose-dependent decreases in colonies formed
colonies formed (A549 cells): dose-dependent decreases in colonies formed
colonies formed (HCT116 cells [3]): dose-dependent decreases in colonies formed
colonies formed (H358 cells): dose-dependent decreases in colonies formed
colonies formed (H1299 cells): dose-dependent decreases in colonies formed
